Results reported in a melting point compilation (Tetko et al.; mined from patent text by program, amines drawn as free bases though some values may be those of a salt).

Structure (SMILES)	melting point [°C]
O=C(c1ccc(OCc2ccccc2)cc1O)c1ccc(OCc2ccccc2)cc1O	140 to 142
CCC(CC)Nc1cc(C(=O)OC)ccc1N1C(=O)CCC1(CO)CCO (configuration not stated)	141 to 143
CN(C)c1ccc(C(=O)N2CCC(Nc3nc(Nc4cccc(C(F)(F)F)c4)nc(OCC(F)(F)F)n3)CC2)cc1	123 to 125
Oc1ccccc1-c1cnc2cnc(-c3ccccc3O)nc2c1	239 to 240
Cc1cccc2c1C(=O)N1CCCC1C(=O)N2 (configuration not stated)	212 to 214
C=CC1CC2=CC(=O)CCC2C2CCC3(C)C(OC(C)=O)CCC3C12 (configuration not stated)	130 to 134
CCOC(=O)Cc1ccc(OCCCCl)c(OC)c1	36 to 38
CCOC(=O)n1c(SC(F)(F)C(F)F)nc(-c2ccccc2)c1-c1ccccc1	126 to 127
CCN(CC)C(=O)Nc1ccc(S(=O)(=O)Cl)cc1	148 to 150
COn1nnc2cc3c(=O)n(C(C)Cn4ncnn4)nnc3cc2c1=O (configuration not stated)	227 to 231
Cc1ccc(-c2ccc(C(=O)Nc3ccc4nc(CN5CCOCC5)ccc4c3)cn2)cc1	214 to 216
COc1cc(C(O)CN2CCN(C(c3ccccc3)c3ccccc3)CC2)cc(OC)c1OC (configuration not stated)	173
CCCCCCCCCCCCCCCCCCOc1cc(C(=O)OC)cc(C(=O)N(CC(=O)OCC)CC(=O)OCC)c1	57 to 60
Cc1ccc(S(=O)(=O)N[C@@H]2CCCC[C@H]2N)cc1 (relative stereo)	93 to 95
Cc1cc2cc(CN3CCCCCC3)cnc2cc1NC(=O)c1ccc(-c2ccc(Cl)cc2)cc1	204
C[C@@H]1Cc2ccsc2[C@H](C)N1CCNS(=O)(=O)c1ccc([N+](=O)[O-])cc1 (relative stereo)	116 to 119
CCC(CC)c1ccc(-c2ccco2)c2nc(Oc3ccc(Cl)cc3Br)n(C)c12	159 to 162
OC(c1ccccc1)(c1ccc(F)cc1)c1ncc[nH]1 (configuration not stated)	199 to 200
CN1CCN(CNc2nc(=O)n(CN3CCN(C)CC3)cc2F)CC1	165 to 166

Structure (SMILES)	melting point [°C]
COC(OC)C(=O)CC(C)(C)C(Cc1c(C)c(Br)cn1S(=O)(=O)c1ccc(C)cc1)[N+](=O)[O-] (configuration not stated)	114 to 115
O=C1CCCCN1C1=CC(CF)(CF)Oc2ccc(C(F)(F)C(F)(F)F)cc21	149 to 150
Cc1nn(-c2cc(OC(C)C)c(Cl)cc2F)c(=O)[nH]1	120 to 124
C#Cc1ccc2c(c1)CCC2=O	157
Cc1c(CC(=O)O)c2ccccc2n1-c1ncnc2ccccc12	234 to 236
CC(=O)OC1(C(C)=O)C(C)CC2C3CC(C)C4=CC(=O)C=CC4(C)C3(Br)C(O)CC21C (configuration not stated)	184 to 185
N#CC(Cc1c[nH]cn1)(c1ccccc1)c1ccc(Cl)cc1Cl (configuration not stated)	215 to 218
Nc1sccc1C(=O)c1cccc(C(F)(F)F)c1	143 to 145
CCN(CC)C(=O)COC(=O)CCNC(=O)[C@H](Cc1ccc(-c2ccccc2)cc1)NCP(=O)(Oc1ccccc1)Oc1ccccc1	68 to 74
Cn1cncc1C(O)(c1ccc(Cl)cc1)c1ccc2nc(C#Cc3ccccc3)cc(-c3cccc(Cl)c3)c2c1 (configuration not stated)	154
CN(C)C=C1CCCc2cc(N3C[C@H](CNC(=O)OC(C)(C)C)OC3=O)ccc2C1=O	157 to 160
CCOCCN(CC)c1ccc(-c2ccc3c(c2)C=C(C(=O)Nc2ccc(CN(C)C4CCOCC4)cc2)CCS3(=O)=O)cc1	194 to 197
CS(=O)(=O)OCCC1c2ccccc2COc2ccccc21 (configuration not stated)	64 to 66
CC(C)(C(=O)O)c1ccc(C(=O)Nc2cn3cc(-c4cn[nH]c4)ccc3n2)cc1	306 to 307
CC(C)Nc1nc2cc(F)c(F)c(F)c2n1[C@@H]1O[C@H](C)[C@@H](O)[C@H]1O	175 to 178
COc1ccc2c(OC(C)C)c(C(N)=O)sc2c1	164 to 166
CCC1(CCCN2CCc3sccc3C2)C(=O)Nc2ccccc21 (configuration not stated)	130 to 132
COc1ccc(S/C(=C/C(=O)NO)CCCCc2ccccc2)cc1OC	148 to 150
